Data taken from patent US7417156B2, “Orally active, antimalarial, anticancer, artemisinin-derived trioxane dimers” (Johns Hopkins University, priority 2002, dated 2008).

Assays:
Assay in all cases: NCI 60 cell line panel screen (SRB)
Type in all cases: cell-based, human
RXF 393 = conditions: for Log10LC50 / Log10TGI50: RXF 393 (Renal Cancer); for Log10LC50: LC50: PG=−50; for Log10TGI50: TGI: PG=0; for Log10GI50: Renal Cancer, RXF 393
BT-549 = conditions: for Log10LC50 / Log10TGI50: BT-549 (Breast Cancer); for Log10LC50: LC50: PG=−50; for Log10TGI50: TGI: PG=0; for Log10GI50: Breast Cancer, BT-549
EKVX = conditions: for Log10LC50 / Log10TGI50: EKVX (Non-Small Cell Lung Cancer); for Log10LC50: LC50: PG=−50; for Log10TGI50: TGI: PG=0; for Log10GI50: Non-Small Cell Lung Cancer, EKVX
MDA-MB231/ATCC = conditions: for Log10GI50: Breast Cancer, MDA-MB231/ATCC; for Log10LC50 / Log10TGI50: MDA-MB231/ATCC (Breast Cancer); for Log10LC50: LC50: PG=−50; for Log10TGI50: TGI: PG=0
SNB-19 = conditions: for Log10GI50: CNS Cancer, SNB-19; for Log10LC50 / Log10TGI50: SNB-19 (CNS Cancer); for Log10LC50: LC50: PG=−50; for Log10TGI50: TGI: PG=0
SF-268 = conditions: for Log10GI50: CNS Cancer, SF-268; for Log10LC50 / Log10TGI50: SF-268 (CNS Cancer); for Log10LC50: LC50: PG=−50; for Log10TGI50: TGI: PG=0
NCI-H23 = conditions: for Log10LC50: LC50: PG=−50; for Log10GI50: Non-Small Cell Lung Cancer, NCI-H23
SK-MEL-2 = conditions: for Log10LC50: SK-MEL2 (Melanoma), LC50: PG=−50; for Log10TGI50: SK-MEL-2 (Melanoma), TGI: PG=0
SK-OV-3 = conditions: for Log10GI50: Ovarian Cancer, SK-OV-3; for Log10LC50 / Log10TGI50: SK-OV-3 (Ovarian Cancer); for Log10LC50: LC50: PG=−50; for Log10TGI50: TGI: PG=0
M14 = conditions: for Log10LC50: M14 (Melanoma), LC50: PG=−50; for Log10TGI50: M-14 (Melanoma), TGI: PG=0; for Log10GI50: Melanoma, M14
IGROVI = conditions: for Log10LC50 / Log10TGI50: IGROVI (Ovarian Cancer); for Log10LC50: LC50: PG=−50; for Log10TGI50: TGI: PG=0
MALME-3M = conditions: for Log10LC50 / Log10TGI50: MALME-3M (Melanoma); for Log10LC50: LC50: PG=−50; for Log10TGI50: TGI: PG=0; for Log10GI50: Melanoma, MALME-3M
CAKI-1 = conditions: for Log10LC50 / Log10TGI50: CAKI-1 (Renal Cancer); for Log10LC50: LC50: PG=−50; for Log10TGI50: TGI: PG=0; for Log10GI50: Renal Cancer, CAKI-1
SF-539 = conditions: for Log10GI50: CNS Cancer, SF-539; for Log10LC50 / Log10TGI50: SF-539 (CNS Cancer); for Log10LC50: LC50: PG=−50; for Log10TGI50: TGI: PG=0
NCI/ADR-RES = conditions: for Log10GI50: Breast Cancer, NCI/ADR-RES; for Log10LC50 / Log10TGI50: NCI/ADR-RES (Breast Cancer); for Log10LC50: LC50: PG=−50; for Log10TGI50: TGI: PG=0
HCT-116 = conditions: for Log10GI50: Colon Cancer, HCT-116; for Log10LC50: LC50: PG=−50
HOP-62 = conditions: for Log10LC50 / Log10TGI50: HOP-62 (Non-Small Cell Lung Cancer); for Log10LC50: LC50: PG=−50; for Log10TGI50: TGI: PG=0; for Log10GI50: Non-Small Cell Lung Cancer, HOP-62
NCI-H522 = conditions: for Log10TGI50: NCI-H522 (Non-Small Cell Lung Cancer), TGI: PG=0; for Log10LC50: NCI-H-522 (Non-Small Cell Lung Cancer), LC50: PG=−50; for Log10GI50: Non-Small Cell Lung Cancer, NCI-H522
[1] = NCI-H23 (Non-Small Cell Lung Cancer)

In the case of `CC1CCC2C(C)C(CC(O)(CC3OC4OC5(C)CCC6C(C)CCC(C3C)C46OO5)CS(=O)(=O)c3ccc(C(=O)O)cc3)OC3OC4(C)CCC1C32OO4` (stereo not drawn) [Compound 10c, bis-trioxane β-hydroxysulfone benzoic acid], the Log10LC50 (RXF 393) is reported as −4.73 log10M, the Log10TGI50 (RXF 393) is reported as −5.99 log10M and the Log10GI50 (RXF 393) is reported as <−8.30. The Log10LC50 (BT-549) was −4.61 log10M, the Log10TGI50 (BT-549) was −5.54 log10M and the Log10GI50 (BT-549) was −6.67. The Log10LC50 (EKVX) was >−4.30 log10M, the Log10TGI50 (EKVX) was −4.63 log10M and the Log10GI50 (EKVX) was −4.99. For the same compound, the Log10GI50 (MDA-MB231/ATCC) was <−8.30, the Log10LC50 (MDA-MB231/ATCC) was −5.02 log10M and the Log10TGI50 (MDA-MB231/ATCC) was <−8.30 log10M. For the same compound, the Log10GI50 (SNB-19) was −6.72, the Log10LC50 (SNB-19) was −4.44 log10M and the Log10TGI50 (SNB-19) was −4.96 log10M. The Log10GI50 (SF-268) was <−8.30, the Log10LC50 (SF-268) was −4.59 log10M and the Log10TGI50 (SF-268) was −5.14 log10M. For the same compound, the Log10LC50 (NCI-H23; [1]) was −4.77 log10M, the Log10TGI50 (NCI-H23; NCI-H23 (Non-Small Cell Lung Cancer), TGI: PG=0) was −5.25 log10M and the Log10GI50 (NCI-H23) was <−8.30. For the same compound, the Log10LC50 (SK-MEL-2) was >−4.30 log10M, the Log10TGI50 (SK-MEL-2) was >−4.30 log10M and the Log10GI50 (SK-OV-3) was −6.82. For the same compound, the Log10LC50 (SK-OV-3) was −4.47 log10M, the Log10TGI50 (SK-OV-3) was −4.92 log10M and the Log10LC50 (M14) was −4.42 log10M. The Log10TGI50 (M14) was −4.91 log10M, the Log10GI50 (M14) was <−8.30 and the Log10LC50 (IGROVI) was >−4.30 log10M. The Log10TGI50 (IGROVI) was >−4.30 log10M, the Log10LC50 (MALME-3M) was −4.80 log10M and the Log10TGI50 (MALME-3M) was <−8.30 log10M. The Log10GI50 (MALME-3M) was <−8.30, the Log10LC50 (CAKI-1) was −4.93 log10M and the Log10TGI50 (CAKI-1) was −6.71 log10M. For the same compound, the Log10GI50 (CAKI-1) was <−8.30, the Log10GI50 (SF-539) was −5.19 and the Log10LC50 (SF-539) was >−4.30 log10M. The Log10TGI50 (SF-539) was −4.66 log10M, the Log10GI50 (NCI/ADR-RES) was −5.73 and the Log10LC50 (NCI/ADR-RES) was −4.63 log10M. For the same compound, the Log10TGI50 (NCI/ADR-RES) was −5.09 log10M, the Log10GI50 (HCT-116) was <−8.30 and the Log10LC50 (HCT-116; HCT-116 (Colon Cancer)) was −4.72 log10M. For the same compound, the Log10TGI50 (HCT-116; HCT-116 (Colon Cancer), TGI: PG=0) was −5.16 log10M, the Log10LC50 (HOP-62) was −4.62 log10M and the Log10TGI50 (HOP-62) was −5.01 log10M. For the same compound, the Log10GI50 (HOP-62) was <−8.30, the Log10TGI50 (NCI-H522) was −4.34 log10M and the Log10LC50 (NCI-H522) was >−4.30 log10M. The Log10GI50 (NCI-H522) was <−8.30.

Compound `CC1CCC2C(C)C(CC(CO)CC3OC4OC5(C)CCC6C(C)CCC(C3C)C46OO5)OC3OC4(C)CCC1C32OO4` (centres unmarked) [Compound 4, bis-trioxane primary alcohol] has a Log10LC50 (RXF 393) of −4.01 log10M, a Log10TGI50 (RXF 393) of −4.41 log10M and a Log10GI50 (RXF 393) of −4.80. The Log10LC50 (BT-549) was −4.31 log10M, the Log10TGI50 (BT-549) was −4.73 log10M and the Log10GI50 (BT-549) was −7.11. The Log10LC50 (EKVX) was −4.36 log10M, the Log10TGI50 (EKVX) was −4.77 log10M and the Log10GI50 (EKVX) was −7.12. The Log10GI50 (MDA-MB231/ATCC) was −5.40, the Log10LC50 (MDA-MB231/ATCC) was >−4.00 log10M and the Log10TGI50 (MDA-MB231/ATCC) was −4.33 log10M. It also gave a Log10GI50 (SNB-19) of −4.88, a Log10LC50 (SNB-19) of −4.13 log10M and a Log10TGI50 (SNB-19) of −4.50 log10M. The Log10GI50 (SF-268) was −5.40, the Log10LC50 (SF-268) was −4.23 log10M and the Log10TGI50 (SF-268) was −4.63 log10M. For the same compound, the Log10LC50 (NCI-H23; [1]) was −4.49 log10M, the Log10GI50 (NCI-H23) was −7.84 and the Log10GI50 (SK-MEL-2; Melanoma, SK-MEL-2) was −7.33. For the same compound, the Log10LC50 (SK-MEL-2) was −4.46 log10M, the Log10TGI50 (SK-MEL-2) was −4.92 log10M and the Log10GI50 (SK-OV-3) was −4.85. For the same compound, the Log10LC50 (SK-OV-3) was −4.21 log10M, the Log10TGI50 (SK-OV-3) was −4.53 log10M and the Log10LC50 (M14) was −4.14 log10M. The Log10TGI50 (M14) was −4.68 log10M, the Log10GI50 (M14) was −5.87 and the Log10LC50 (IGROVI) was −4.32 log10M. The Log10TGI50 (IGROVI) was −4.68 log10M, the Log10GI50 (IGROVI; Ovarian Cancer, IGROVI) was −5.36 and the Log10LC50 (MALME-3M) was −4.28 log10M. For the same compound, the Log10TGI50 (MALME-3M) was −4.74 log10M, the Log10GI50 (MALME-3M) was −7.31 and the Log10LC50 (CAKI-1) was −4.38 log10M. It also gave a Log10TGI50 (CAKI-1) of −4.84 log10M, a Log10GI50 (CAKI-1) of −7.05 and a Log10GI50 (SF-539) of −7.05. For the same compound, the Log10LC50 (SF-539) was −4.34 log10M, the Log10TGI50 (SF-539) was −4.72 log10M and the Log10GI50 (NCI/ADR-RES) was −7.45. The Log10LC50 (NCI/ADR-RES) was −4.52 log10M, the Log10TGI50 (NCI/ADR-RES) was −6.41 log10M and the Log10GI50 (HCT-116) was <−8.00. The Log10LC50 (HCT-116; HCT-116 (Colon Cancer)) was −4.57 log10M, the Log10LC50 (HOP-62) was −4.20 log10M and the Log10TGI50 (HOP-62) was −4.56 log10M. For the same compound, the Log10GI50 (HOP-62) was −4.92, the Log10TGI50 (NCI-H522) was −4.88 log10M and the Log10LC50 (NCI-H522) was −4.40 log10M. It also gave a Log10GI50 (NCI-H522) of −7.53.
